Among the data in patent US11787810B2, “Diacylglyceride O-acyltransferase 2 inhibitors” (Merck Sharp & Dohme Corp., priority 2020, dated 2023) are IC50 values, retold here.

For orientation: IC50 means the concentration at which inhibition is half-maximal.

For this test, the target named is human DGAT2 (hDGAT2) (Homo sapiens (Human), UniProt Q96PD7). In words: DGAT2 enzymatic activity assay (13C18-triolein formation, LC/MS/MS). It counts as biochemical. The following applies: hDGAT2 Sf-9 membrane prep, 25 μM diolein, 5 μM 13C oleoyl-CoA; read-out: Human DGAT2 IC50. Here is the method: Sf-9 insect cells were maintained in Grace's insect cell culture medium with 10% heated-inactivated fetal bovine serum, 1% Pluronic F-68 and 0.14 μg/ml Kanamycine sulfate at 27° C. in a shaker incubator. After infection with untagged baculovirus expressing human DGAT2 (hDGAT2) at multiplicity of infection (MOI) 3 for 48 hours, cells were harvested. Cell pellets were suspended in buffer containing 10 mM Tris-HCl pH 7.5, 1 mM EDTA, 250 mM sucrose and Complete Protease Inhibitor Cocktail (Sigma Aldrich), and sonicated on ice. Cell debris were removed by centrifugation at 2000×g for 15 minutes. Membrane fractions were isolated by ultracentrifugation (100,000×g), resuspended in the same buffer, and frozen (−80° C.) for later use. The protein concentration was determined with the Pierce™ BCA Protein Assay Kit (Thermo Fisher Scientific). Expression of protein levels was analyzed by immunoblotting with rabbit anti-DGAT2 antibody (Abcam, ab102831) and donkey anti-rabbit IgG H&L Alexa Fluor® 647 (Abcam, ab150075) followed by detection using Typhoon FLA9000 (GE Healthcare).
Sequence of human DGAT2 (hDGAT2) (Q96PD7 whole entry): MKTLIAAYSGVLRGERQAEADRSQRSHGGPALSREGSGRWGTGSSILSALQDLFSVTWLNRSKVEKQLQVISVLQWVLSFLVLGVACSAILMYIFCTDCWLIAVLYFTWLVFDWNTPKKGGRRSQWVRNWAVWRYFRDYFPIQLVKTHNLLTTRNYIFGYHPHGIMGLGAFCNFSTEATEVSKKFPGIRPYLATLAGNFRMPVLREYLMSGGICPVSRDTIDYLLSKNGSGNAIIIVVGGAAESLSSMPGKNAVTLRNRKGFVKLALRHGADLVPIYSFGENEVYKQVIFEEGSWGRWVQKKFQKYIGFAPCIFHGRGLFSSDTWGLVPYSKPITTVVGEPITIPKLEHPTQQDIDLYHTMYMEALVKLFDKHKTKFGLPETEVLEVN
LC/MS/MS analyses were performed using Thermal Fisher's LX4-TSQ Vantage system. This system consists of an Agilent binary high-performance liquid chromatography (HPLC) pumps and a TSQ Vantage triple quadrupole MS/MS instrument. For each sample, 2 μL samples from the top organic layer of in-plate liquid-liquid extraction were injected onto a Thermo Betabasic C4 column (2.1 mm×20 mm, 5 μm particle size). The samples were then eluted using the following conditions; mobile phase: Isopropanol:acetonitrile/10 mM ammonium formate=50/35/15 (v/v/v), flow rate: 0.8 mL/min, temperature: 25° C. Data was acquired in positive mode using a heated electrospray ionization (HESI) interface. The operational parameters for the TSQ Vantage MS/MS instrument were a spray voltage of 3000 V, capillary temperature of 280° C., vaporizer temperature 400° C., sheath gas 45 arbitrary unit, Aux gas 10 arbitrary units, S-lens 165 and collision gas 1.0 mTorr. […] (SRM) chromatograms of ^13C18-triolein (Q1: 920.8>Q3:621.3) and internal standard ^13C21-triolein (Q1: 923.8>Q3:617.3) were collected for 33 sec. The peak area was integrated by Xcalibur Quan software. The ratio between the ^13C18triolein generated in the reaction and spiked in internal standard ^13C21-triolein was used to generate percentage inhibition and IC50 values. Compound percentage inhibition was calculated by the following formula: Inhibition %=1-[(compound response−low control)/(high control−low control)]×100%. Potent compounds were titrated and IC50 were calculated by 4 parameter sigmoidal curve fitting formula.
DGAT2 activity was determined by measuring the amount of enzymatic product ^13C18-triolein (^13C-1,2,3-Tri(cis-9-octadecenoyl)glycerol) using the membrane prep mentioned above. The assay was carried out in ABgene 384-well assay plates in a final volume of 25 μL at rt. The assay mixture contained the following: assay buffer (100 mM Tris·Cl, pH 7.0, 20 mM MgCl2, 5% ethanol), 25 μM of diolein, 5 μM of ^13C oleoyl-CoA and 8 ng/μL of DGAT2 membrane.
Take `CC(C)n1nc(-c2cccc(OC(F)F)c2)c2ncc(C(=O)NC(CO)C(F)(F)F)cc21` (racemic) [Example 52, 3-(3-(difluoromethoxy)phenyl)-1-isopropyl-N-(1,1,1-trifluoro-3-hydroxypropan-2-yl)-1H-pyrazolo[4,3-b]pyridine-6-carboxamide]: the IC50 amounted to 41 nM.
Then `CC(C)n1nc(-c2cccc(OC(F)F)c2)c2ncc(C(=O)NC3(CO)CCOC3)cc21` (single isomer, unassigned) [Example 39a, 3-[3-(difluoromethoxy)phenyl]-N-[3-(hydroxymethyl)tetrahydrofuran-3-yl]-1-isopropyl-pyrazolo[4,3-b]pyridine-6-carboxamide], with 19 nM; and `CC(C)n1nc(-c2cccc(OC(F)F)c2)c2ncc(C(=O)NC3(CO)CCOC3)cc21` (single isomer, unassigned) [Example 39b, 3-[3-(difluoromethoxy)phenyl]-N-[3-(hydroxymethyl)tetrahydrofuran-3-yl]-1-isopropyl-pyrazolo[4,3-b]pyridine-6-carboxamide], with 38 nM; and `CC(O)C(C)NC(=O)c1cnc2c(-c3cccc(OC(F)F)c3)nn(C(C)C)c2c1` (single isomer, unassigned) [Example 45b, 3-(3-(difluoromethoxy)phenyl)-N-(3-hydroxybutan-2-yl)-1-isopropyl-1H-pyrazolo[4,3-b]pyridine-6-carboxamide], with 520 nM.
The result for `CC(O)C(C)NC(=O)c1cnc2c(-c3cccc(OC(F)F)c3)nn(C(C)C)c2c1` (single isomer, unassigned) [Example 45c, 3-(3-(difluoromethoxy)phenyl)-N-(3-hydroxybutan-2-yl)-1-isopropyl-1H-pyrazolo[4,3-b]pyridine-6-carboxamide] reads 498 nM; that for `CC(O)C(C)NC(=O)c1cnc2c(-c3cccc(OC(F)F)c3)nn(C(C)C)c2c1` (single isomer, unassigned) [Example 45d, 3-(3-(difluoromethoxy)phenyl)-N-(3-hydroxybutan-2-yl)-1-isopropyl-1H-pyrazolo[4,3-b]pyridine-6-carboxamide], 2730 nM; that for `CC(C)n1nc(-c2cccc(OC(F)F)c2)c2ncc(C(=O)NC(C)(C)C(C)O)cc21` (single isomer, unassigned) [Example 46a, 3-(3-(difluoromethoxy)phenyl)-N-(3-hydroxy-2-methylbutan-2-yl)-1-isopropyl-1H-pyrazolo[4,3-b]pyridine-6-carboxamide], 15 nM.
The result for `CC(C)n1nc(-c2cccc(OC(F)F)c2)c2ncc(C(=O)NC(C)(C)C(C)O)cc21` (single isomer, unassigned) [Example 46b, 3-(3-(difluoromethoxy)phenyl)-N-(3-hydroxy-2-methylbutan-2-yl)-1-isopropyl-1H-pyrazolo[4,3-b]pyridine-6-carboxamide] reads 13 nM.
In the case of `CC(C)n1nc(-c2cccc(OC(F)F)c2)c2ncc(C(=O)NC3(C(C)(C)O)CCOC3)cc21` (single isomer, unassigned) [Example 47a, 3-(3-(difluoromethoxy)phenyl)-N-(3-(2-hydroxypropan-2-yl)tetrahydrofuran-3-yl)-1-isopropyl-1H-pyrazolo[4,3-b]pyridine-6-carboxamide], the IC50 was 1410 nM.
Regarding `CC(C)n1nc(-c2cccc(OC(F)F)c2)c2ncc(C(=O)NC3(C(C)(C)O)CCOC3)cc21` (single isomer, unassigned) [Example 47b, 3-(3-(difluoromethoxy)phenyl)-N-(3-(2-hydroxypropan-2-yl)tetrahydrofuran-3-yl)-1-isopropyl-1H-pyrazolo[4,3-b]pyridine-6-carboxamide], the concentration for half-maximal inhibition (IC50) came out at 50 nM.
Consider `CC(C)n1nc(-c2cccc(OC(F)F)c2)c2ncc(C(=O)NC3(C)CCOC3)cc21` (single isomer, unassigned) [Example 48a, 3-(3-(difluoromethoxy)phenyl)-1-isopropyl-N-(3-methyltetrahydrofuran-3-yl)-1H-pyrazolo[4,3-b]pyridine-6-carboxamide], for which the IC50 worked out at 6.3 nM.
Then `CC(C)n1nc(-c2cccc(OC(F)F)c2)c2ncc(C(=O)NC3(C)CCOC3)cc21` (single isomer, unassigned) [Example 48b, 3-(3-(difluoromethoxy)phenyl)-1-isopropyl-N-(3-methyltetrahydrofuran-3-yl)-1H-pyrazolo[4,3-b]pyridine-6-carboxamide], with 16 nM.
Then `CC(C)n1nc(-c2cccc(OC(F)F)c2)c2ncc(C(=O)NC3(C(C)O)CCOC3)cc21` (single isomer, unassigned) [Example 50a, 3-(3-(difluoromethoxy)phenyl)-N-(3-(1-hydroxyethyl)tetrahydrofuran-3-yl)-1-isopropyl-1H-pyrazolo[4,3-b]pyridine-6-carboxamide], with 132 nM.
`CC(C)n1nc(-c2cccc(OC(F)F)c2)c2ncc(C(=O)NC3(C(C)O)CCOC3)cc21` (single isomer, unassigned) [Example 50b, 3-(3-(difluoromethoxy)phenyl)-N-(3-(1-hydroxyethyl)tetrahydrofuran-3-yl)-1-isopropyl-1H-pyrazolo[4,3-b]pyridine-6-carboxamide]: the IC50 came out at 31 nM.
In the case of `CC(C)n1nc(-c2cccc(OC(F)F)c2)c2ncc(C(=O)NC3(C(C)O)CCOC3)cc21` (single isomer, unassigned) [Example 50c, 3-(3-(difluoromethoxy)phenyl)-N-(3-(1-hydroxyethyl)tetrahydrofuran-3-yl)-1-isopropyl-1H-pyrazolo[4,3-b]pyridine-6-carboxamide], the 50% inhibitory concentration (IC50) was 108 nM.
On to `CC1(NC(=O)c2cnc3c(-c4cccc(OC(F)F)c4)nn([C@@H]4COC[C@H]4O)c3c2)CS(=O)(=O)C1` (single isomer, unassigned) [Example 53a, 3-(3-(difluoromethoxy)phenyl)-1-((trans)-4-hydroxytetrahydrofuran-3-yl)-N-(3-methyl-1,1-dioxidothietan-3-yl)-1H-pyrazolo[4,3-b]pyridine-6-carboxamide], for which the concentration for half-maximal inhibition (IC50) is 16 nM.
Turning to `CC1(NC(=O)c2cnc3c(-c4cccc(OC(F)F)c4)nn([C@@H]4COC[C@H]4O)c3c2)CS(=O)(=O)C1` (single isomer, unassigned) [Example 53b, 3-(3-(difluoromethoxy)phenyl)-1-((trans)-4-hydroxytetrahydrofuran-3-yl)-N-(3-methyl-1,1-dioxidothietan-3-yl)-1H-pyrazolo[4,3-b]pyridine-6-carboxamide], the IC50 was found to be 132 nM.
The result for `C[C@]1(NC(=O)c2cnc3c(-c4cccc(OC(F)F)c4)nn(C4CCOC4)c3c2)CCS(=O)(=O)C1` (single isomer, unassigned) [Example 60a] reads 600 nM.
Then `C[C@]1(NC(=O)c2cnc3c(-c4cccc(OC(F)F)c4)nn(C4CCOC4)c3c2)CCS(=O)(=O)C1` (single isomer, unassigned) [Example 60b], with 37 nM.
For the compound `C[C@]1(NC(=O)c2cnc3c(-c4cccc(OC(F)F)c4)nn(C4CCCOC4)c3c2)CCS(=O)(=O)C1` (single isomer, unassigned) [Example 62a], the 50% inhibitory concentration (IC50) came to 59 nM.
`C[C@]1(NC(=O)c2cnc3c(-c4cccc(OC(F)F)c4)nn(C4CCCOC4)c3c2)CCS(=O)(=O)C1` (single isomer, unassigned) [Example 62b]: the IC50 came out at 116 nM.
As for `CCC(C)n1nc(-c2cccc(OC(F)F)c2)c2ncc(C(=O)NC3(C)CS(=O)(=O)C3)cc21` (single isomer, unassigned) [Example 66a, 3-[3-(difluoromethoxy)phenyl]-N-(3-methyl-1,1-dioxo-thietan-3-yl)-1-sec-butyl-pyrazolo[4,3-b]pyridine-6-carboxamide], the half-inhibitory concentration (IC50) worked out at 71 nM.
On to `CCC(C)n1nc(-c2cccc(OC(F)F)c2)c2ncc(C(=O)NC3(C)CS(=O)(=O)C3)cc21` (single isomer, unassigned) [Example 66b, 3-[3-(difluoromethoxy)phenyl]-N-(3-methyl-1,1-dioxo-thietan-3-yl)-1-sec-butyl-pyrazolo[4,3-b]pyridine-6-carboxamide], for which the IC50 turned out to be 1.5 nM.
